Results reported in paper PMC10388363, “Novel 1,4-Dihydropyridines as Specific Binders and Activators of SIRT3 Impair Cell Viability and Clonogenicity and Downregulate Hypoxia-Induced Targets in Cancer Cells” (Journal of Medicinal Chemistry, 2023).

System: HIF-1α, EPAS-1, and CA-IX protein expression in CAL-62
Assay: Western blot of HIF-1α, EPAS-1 and CA-IX in CAL-62 cells under hypoxia
Assay type: cell-based
Conditions: CAL-62, 50 μM, 48 h, hypoxia
Description: Based on these findings, we decided to assess the ability of the SIRT3 activators 3a–d to impair HIF-1α, EPAS-1, and CA-IX protein expression in CAL-62 (Figure 10A–F) and MDA-MB-231 (Figure 11A–F) cell lines treated with the compounds at 50 μM for 48 h and under hypoxia conditions.
Breast cancer cell line MDA-MB-231, anaplastic thyroid cancer cell line CAL-62 and human keratinocytes HaCaT were purchased from ATCC and were cultured in RPMI 1640 medium (R0883 Sigma Aldrich-MERCK) (MDA-MB-231 and CAL-62) or DMEM medium (11965092, Gibco) supplemented with 10% fetal bovine serum (Sigma-Aldrich-MERCK, F9665), 2 mM glutamine (G7513; Sigma-Aldrich-MERCK), 100 units/mL penicillin and 0.1 mg/mL streptomycin (P0781; Sigma-Aldrich-MERCK). Adherent cells were detached by Trypsin–EDTA solution (TA049; Sigma-Aldrich-MERCK). Cells were maintained at 37 °C in humidified incubator with 5% CO2. Cells were treated with […] (CoCl2) (Merck; C8661) dissolved in distilled, sterile water for 24 h to induce hypoxia (200 μM). Hypoxic and normoxic cells were also treated with 10/50 μM of the indicated compounds (dissolved in DMSO) for 48 h, maintaining the CoCl2 in the culture medium for hypoxic conditions. SIRT3 inhibitor 3-TYP was dissolved in DMSO and added to a final concentration of 1 μM for 24 and/or 48 h.
The following antibodies were used in this study: ACTB (Merck; A5316), HIF1-α (Cell Signaling; 14179), HIF2/EPAS-1 (Santa Cruz Biotechnology sc-13596), HXKII (Santa Cruz Biotechnology sc-6521), CAIX (Novus Biotechnology NB100-417), SIRT3 (Cell Signaling; 2627S), MnSOD (Abcam ab13533), MnSOD K68 (Abcam ab137037), MnSOD K122 (Abcam ab214675), peroxidase-conjugated AffiniPure Goat Anti-Rabbit IgG (H + L) (Jackson ImmunoResearch; 111-035-003), and peroxidase-conjugated AffiniPure Goat Anti-Mouse IgG (H + L) (Jackson ImmunoResearch; 115-035-062).
Treated and untreated cells were collected and centrifuged at 3000 rpm for 5 min. After removing the supernatant, cells were lysed in 70 μL of lysis buffer containing: 50 mM Tris-Cl (Merck; 93352), 250 mM sodium chloride (NaCl, Merck; S7653), 5 mM ethylenediaminetetraacetic acid (EDTA; Merck; E6758), 0.1% Triton X-100 and 0.1 mM dithiothreitol (Merck; D9163) plus 1 mM phenylmethylsulfonyl fluoride (PMSF, Merck; 93482), protease inhibitor cocktail (PI; Merck; P8340), 1 mM sodium orthovanadate (NA3VO4, Merck; S6508), and 10 mM sodium fluoride (NaF, Merck; 201154) (lysis buffer). After 30 min on ice, samples were centrifuged at 13,000 rpm for 10 min at 4 °C, and the supernatants collected. Protein concentration was determined by the Bradford assay (Bio-Rad; 500-0205). The equivalent of 15 or 50 μg of protein was boiled for 5 min, electrophoresed onto denaturing SDS-PAGE gel, and transferred onto a […] nitrocellulose membrane (Bio-Rad; 162-0115). After blocking with 5% milk, membranes were incubated with the appropriate primary antibody overnight. The next day, after three washes with 0.1% Tween 20 (Merck; P9416) in PBS (PBST) for 30 min at rt, membranes were incubated with the appropriate secondary antibody for 1 h at rt. After three more washes in PBST, the detection of the relevant protein was assessed by enhanced chemiluminescence (Lite Ablot TURBO, Euro-Clone; EMP012001). Densitometric analysis of the bands, relative to ACTB, was performed using ImageJ Software v1.51 (NIH, Bethesda, MD, USA).

SMILES	CA-IX protein expression	EPAS-1 protein expression	HIF-1α protein expression
CCOC(=O)C1=CN(C(=O)c2cccc(OC)c2)C=C(C(=O)OCC)C1c1ccccc1 [Compound 3a, Diethyl 1-(3-methoxybenzoyl)-4-phenyl-1,4-dihydropyridine-3,5-dicarboxylate]	significantly downregulated		
CCOC(=O)C1=CN(C(=O)c2ccc(OC)c(OC)c2)C=C(C(=O)OCC)C1c1ccccc1 [Compound 3c, Diethyl 1-(3,4-dimethoxybenzoyl)-4-phenyl-1,4-dihydropyridine-3,5-dicarboxylate]		downregulated	
CCOC(=O)C1=CN(C(=O)c2cc(OC)cc(OC)c2)C=C(C(=O)OCC)C1c1ccccc1 [Compound 3d, Diethyl 1-(3,5-dimethoxybenzoyl)-4-phenyl-1,4-dihydropyridine-3,5-dicarboxylate]	significantly downregulated	downregulated	decrease
